Results from ChEMBL document CHEMBL3046433, “Synthesis and Antimuscarinic Activity of Derivatives of 2-Substituted-1,3-Dioxolanes” (Med Chem Res, 2005).

What was measured:
Cavia porcellus = species: Cavia porcellus; assay: Selectivity ratio of pKb for Cavia porcellus (guinea pig) ileum M3 receptor to pKb for Cavia porcellus (guinea pig) left atria M2 receptor; format: tissue-based; settings: Atrium/Ileum
[1] = Selectivity ratio of pKb for rabbit vas deferens M1 receptor to pKb for guinea pig left atria M2 receptor
[2] = Selectivity ratio of pKb for rabbit vas deferens M1 receptor to pKb for guinea pig ileum M3 receptor; format: tissue-based
[3] = target: T1, Muscarinic receptor 2 (Cavia porcellus) (UniProt Q8VH27); assay: Binding affinity to Cavia porcellus (guinea pig) left atria M2 receptor after 2 hr
T1 sequence (whole entry): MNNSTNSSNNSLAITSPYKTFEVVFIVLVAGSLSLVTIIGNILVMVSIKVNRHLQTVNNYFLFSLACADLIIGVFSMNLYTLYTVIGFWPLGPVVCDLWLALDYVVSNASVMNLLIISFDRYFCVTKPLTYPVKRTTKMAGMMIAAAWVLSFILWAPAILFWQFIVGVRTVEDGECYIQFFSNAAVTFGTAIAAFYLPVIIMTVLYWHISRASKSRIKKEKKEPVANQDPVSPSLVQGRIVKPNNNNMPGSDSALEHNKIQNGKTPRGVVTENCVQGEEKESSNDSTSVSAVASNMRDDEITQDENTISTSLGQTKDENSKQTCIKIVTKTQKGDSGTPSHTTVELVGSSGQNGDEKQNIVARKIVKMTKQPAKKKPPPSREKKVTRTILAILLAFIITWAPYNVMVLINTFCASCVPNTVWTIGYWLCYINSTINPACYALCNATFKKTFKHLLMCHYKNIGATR

Oryctolagus cuniculus = species: Oryctolagus cuniculus; assay: Binding affinity to Oryctolagus cuniculus (rabbit) vas deferens M1 receptor after 1 hr
[4] = target: Muscarinic acetylcholine receptor M3 (Cavia porcellus) (UniProt Q8VH26); assay: Binding affinity to Cavia porcellus (guinea pig) ileum M3 receptor after 30 min; format: tissue-based
Chain of Muscarinic acetylcholine receptor M3 (Cavia porcellus) (Q8VH26 1-587): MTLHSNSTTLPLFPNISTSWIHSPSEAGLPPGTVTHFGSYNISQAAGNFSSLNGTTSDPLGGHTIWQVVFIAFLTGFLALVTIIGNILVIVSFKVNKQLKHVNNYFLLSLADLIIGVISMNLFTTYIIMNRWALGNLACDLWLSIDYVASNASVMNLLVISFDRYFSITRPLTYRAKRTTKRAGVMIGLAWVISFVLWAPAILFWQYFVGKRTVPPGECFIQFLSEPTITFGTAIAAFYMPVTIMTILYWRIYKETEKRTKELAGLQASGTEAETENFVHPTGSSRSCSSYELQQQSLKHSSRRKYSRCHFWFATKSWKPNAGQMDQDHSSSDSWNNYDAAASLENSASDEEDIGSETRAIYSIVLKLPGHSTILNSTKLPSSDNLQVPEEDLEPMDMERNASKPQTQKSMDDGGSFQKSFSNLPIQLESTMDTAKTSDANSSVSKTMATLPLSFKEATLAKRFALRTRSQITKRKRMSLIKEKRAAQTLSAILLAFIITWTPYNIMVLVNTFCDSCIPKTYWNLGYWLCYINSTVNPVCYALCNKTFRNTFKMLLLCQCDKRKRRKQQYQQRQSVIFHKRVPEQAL

Muscarinic receptor 2 = target: T2, Muscarinic receptor 2 (Cavia porcellus, UniProt Q8VH27); assay: Antagonist activity at Cavia porcellus (guinea pig) left atria M2 receptor after 2 hr; settings: read-out: pA2 (converted)
T2 sequence (Q8VH27 whole entry): T1 sequence (whole entry)

[5] = target: Muscarinic acetylcholine receptor M3 (Cavia porcellus, UniProt Q8VH26); assay: Antagonist activity at Cavia porcellus (guinea pig) ileum M3 receptor after 30 min; format: tissue-based; settings: read-out: pA2 (converted)
Chain of Muscarinic acetylcholine receptor M3 (Q8VH26 whole entry): as the sequence (Q8VH26 1-587) above

Ratio pKb [1] | pKb [3] | pKb (Oryctolagus cuniculus) | pKb [4] | Kb (Muscarinic receptor 2) | Kb [5] | SMILES | Ratio pKb (Cavia porcellus) | Ratio pKb [2]
5 | 6.62 | 7.31 | 6.07 |  |  | CN(C)C[C@@H]1CO[C@H](C(c2ccccc2)c2ccccc2)O1 | 0.3 | 17
 |  |  |  | 1580 nM | 372 nM | CN(C)[C@H]1CO[C@H](C(c2ccccc2)c2ccccc2)OC1 |  | 
 |  |  |  | 28.2 nM | 5.37 nM | CN(C)[C@H]1CO[C@@H](C(c2ccccc2)c2ccccc2)OC1 |  | 
2 | 6.56 | 6.9 | 6.67 |  |  | CN(C)C[C@@H]1CO[C@@H](C(c2ccccc2)c2ccccc2)O1 | 1 | 2
1 | 6.71 | 6.87 | 6.71 |  |  | C[C@H]1OC(c2ccccc2)(c2ccccc2)O[C@@H]1CN(C)C (relative stereo) | 1 | 1
0.7 | 6.48 | 6.35 | 6.44 |  |  | C[C@@H]1OC(c2ccccc2)(c2ccccc2)O[C@@H]1CN(C)C (relative stereo) | 0.9 | 0.8
1 | 7.11 | 7.15 | 6.72 |  |  | CN(C)CC1COC(c2ccccc2)(c2ccccc2)O1 (centres undefined) | 0.4 | 3
